{"source": "patent US9770025B2", "about": "“Fungicidal compositions” (Syngenta Participations AG, priority 2013, dated 2017)", "assay_type_in_all_cases": "cell-based", "key": {"Fusarium culmorum": {"tested_on": "Fusarium culmorum", "test": "Fusarium culmorum liquid culture growth inhibition", "conditions": "Fusarium culmorum, in PDB", "method": "(§1) Liquid Culture Tests in Well Plates\n(§2) Mycelia fragments or conidia suspensions of a fungus, prepared either freshly from liquid cultures of the fungus or from cryogenic storage, were directly mixed into nutrient broth. DMSO solutions of the test compound (max. 10 mg/ml) was diluted with 0.025% Tween20 by factor 50 and 10 μl of this solution was pipetted into a microtiter plate (96-well format). The nutrient broth containing the fungal spores/mycelia fragments was then added to give an end concentration of the tested compound. The test plates were incubated in the dark at 24° C. and 96% rh. The inhibition of fungal growth was determined photometrically and visually after 2-4 days, depending on the pathosystem, and percent antifungal activity relative to the untreated check was calculated.\nFusarium culmorum/Liquid Culture:\n(§3) Conidia of the fungus from cryogenic storage were directly mixed into nutrient broth (PDB potato dextrose broth). After placing a (DMSO) solution of test compound into a microtiter plate (96-well format), the nutrient broth containing the fungal spores was added."}, "Gaeumannomyces graminis": {"tested_on": "Gaeumannomyces graminis", "test": "Gaeumannomyces graminis liquid culture growth inhibition", "conditions": "Gaeumannomyces graminis, read-out: Compound 1.001 inhibition (%), in PDB", "method": "as §1, §2\nGaeumannomyces graminis/Liquid Culture:\nMycelial fragments of the fungus from cryogenic storage were directly mixed into nutrient broth (PDB potato dextrose broth). After placing a (DMSO) solution of test compound into a microtiter plate (96-well format), the nutrient broth containing the fungal spores was added."}, "[1]": {"tested_on": "Monographella nivalis (Microdochium nivale)", "test": "Monographella nivalis (Microdochium nivale) liquid culture growth inhibition", "method": "as §1, §2\nMonographella nivalis (Microdochium nivale)/Liquid Culture:\nas §3"}, "[2]": {"tested_on": "Mycosphaerella graminicola (Septoria tritici)", "test": "Mycosphaerella graminicola (Septoria tritici) liquid culture growth inhibition", "conditions": "for inhibition at 0.0008 ppm / inhibition at 0.0016 ppm / inhibition at 0.0031 ppm: Zymoseptoria tritici; for inhibition at 0.0008 ppm: read-out: Compound 1.001 inhibition (%), 0.0008 ppm; for inhibition at 0.0016 ppm: read-out: Compound 1.001 inhibition (%), 0.0016 ppm; for inhibition at 0.0031 ppm: read-out: Compound 1.001 inhibition (%), 0.0031 ppm", "method": "as §1, §2\nMycosphaerella graminicola (Septoria tritici)/Liquid Culture:\nas §3"}, "Pythium ultimum": {"tested_on": "Pythium ultimum", "test": "Pythium ultimum (seedling damping off) liquid culture growth inhibition", "conditions": "Globisporangium ultimum, read-out: Compound 1.001 inhibition (%), PDB", "method": "as §1, §2\nPythium ultimum Seedling Damping Off)/Liquid Culture:\nMycelia fragments and oospores of a newly grown liquid culture of the fungus were directly mixed into nutrient broth (PDB potato dextrose broth). After placing a (DMSO) solution of the test compounds into a microtiter plate (96-well format), the nutrient broth containing the fungal mycelia/spore mixture was added."}}, "note": "Where two headings read alike, the source gives them in different places.", "data": [{"smiles": "CON(C(=O)c1cn(C)nc1C(F)F)C(C)Cc1c(Cl)cc(Cl)cc1Cl", "note": "(stereo not drawn) [Compound 1.001, 3-(difluoromethyl)-N-methoxy-1-methyl-N-[1-methyl-2-(2,4,6-trichlorophenyl)ethyl]pyrazole-4-carboxamide]", "values": [{"measurement": "inhibition at 0.1 ppm", "setting": "Fusarium culmorum; read-out: Compound 1.001 inhibition (%), 0.1000 ppm", "value": 51, "unit": "%"}, {"measurement": "inhibition at 0.2 ppm", "setting": "Fusarium culmorum; read-out: Compound 1.001 inhibition (%), 0.2000 ppm", "value": 55, "unit": "%"}, {"measurement": "inhibition at 0.025 ppm", "setting": "Gaeumannomyces graminis; 0.0250 ppm", "value": 0, "unit": "%"}, {"measurement": "inhibition at 0.05 ppm", "setting": "Gaeumannomyces graminis; 0.0500 ppm", "value": 0, "unit": "%"}, {"measurement": "inhibition at 0.2 ppm", "setting": "Gaeumannomyces graminis; 0.2000 ppm", "value": 0, "unit": "%"}, {"measurement": "Compound 1.001 inhibition (%)", "setting": "[1]; 0.0008 ppm, in PDB", "value": 3, "unit": "%"}, {"measurement": "Compound 1.001 inhibition (%)", "setting": "[1]; 0.0250 ppm, in PDB", "value": 5, "unit": "%"}, {"measurement": "Compound 1.001 inhibition (%)", "setting": "[1]; 0.0500 ppm, in PDB", "value": 48, "unit": "%"}, {"measurement": "inhibition at 0.0004 ppm", "setting": "[1]; Monographella nivalis, read-out: Compound 1.001 inhibition (%), 0.0004 ppm, PDB, Table 5", "value": 0, "unit": "%"}, {"measurement": "inhibition at 0.0008 ppm", "setting": "[1]; Monographella nivalis, read-out: Compound 1.001 inhibition (%), 0.0008 ppm, PDB, Table 5", "value": 0, "unit": "%"}, {"measurement": "inhibition at 0.0008 ppm", "setting": "[1]; Monographella nivalis, read-out: Compound 1.001 inhibition (%), 0.0008 ppm, in PDB", "value": 2, "unit": "%"}, {"measurement": "inhibition at 0.0016 ppm", "setting": "[1]; Monographella nivalis, read-out: Compound 1.001 inhibition (%), 0.0016 ppm, PDB, Table 5", "value": 0, "unit": "%"}, {"measurement": "inhibition at 0.0016 ppm", "setting": "[1]; Monographella nivalis, read-out: Compound 1.001 inhibition (%), 0.0016 ppm, in PDB", "value": 0, "unit": "%"}, {"measurement": "inhibition at 0.0031 ppm", "setting": "[1]; Monographella nivalis, read-out: Compound 1.001 inhibition (%), 0.0031 ppm, PDB, Table 5", "value": 0, "unit": "%"}, {"measurement": "inhibition at 0.0125 ppm", "setting": "[1]; Monographella nivalis, read-out: Compound 1.001 inhibition (%), 0.0125 ppm, in PDB", "value": 0, "unit": "%"}, {"measurement": "inhibition at 0.05 ppm", "setting": "[1]; Monographella nivalis, read-out: Compound 1.001 inhibition (%), 0.0500 ppm, in PDB", "value": 51, "unit": "%"}, {"measurement": "inhibition at 0.0004 ppm", "setting": "[1]; Monographella nivalis, read-out: Compound 1.001 inhibition (%), compound 1.001 alone at 0.0004 ppm, in PDB", "value": 4, "unit": "%"}, {"measurement": "inhibition at 0.0008 ppm", "setting": "[1]; Monographella nivalis, read-out: Compound 1.001 inhibition (%), compound 1.001 alone at 0.0008 ppm, in PDB", "value": 1, "unit": "%"}, {"measurement": "inhibition at 0.0016 ppm", "setting": "[1]; Monographella nivalis, read-out: Compound 1.001 inhibition (%), compound 1.001 alone at 0.0016 ppm, in PDB", "value": 0, "unit": "%"}, {"measurement": "inhibition at 0.0063 ppm", "setting": "[1]; Monographella nivalis, read-out: Compound 1.001 inhibition (%), compound 1.001 alone at 0.0063 ppm, in PDB (Table 38)", "value": 0, "unit": "%"}, {"measurement": "inhibition at 0.0125 ppm", "setting": "[1]; Monographella nivalis, read-out: Compound 1.001 inhibition (%), compound 1.001 alone at 0.0125 ppm, in PDB", "value": 0, "unit": "%"}, {"measurement": "inhibition at 0.0125 ppm", "setting": "[1]; Monographella nivalis, read-out: Compound 1.001 inhibition (%), compound 1.001 alone at 0.0125 ppm, in PDB (Table 38)", "value": 0, "unit": "%"}, {"measurement": "Compound 1.001 inhibition (%)", "setting": "[2]; 0.0016 ppm, in PDB", "value": 33, "unit": "%"}, {"measurement": "Compound 1.001 inhibition (%)", "setting": "[2]; 0.0031 ppm, in PDB", "value": 82, "unit": "%"}, {"measurement": "inhibition at 0.0008 ppm", "setting": "[2]; PDB, Table 8", "value": 15, "unit": "%"}, {"measurement": "inhibition at 0.0008 ppm", "setting": "[2]; in PDB", "value": 19, "unit": "%"}, {"measurement": "inhibition at 0.0016 ppm", "setting": "[2]; PDB, Table 8", "value": 34, "unit": "%"}, {"measurement": "inhibition at 0.0016 ppm", "setting": "[2]; PDB, Table 12", "value": 54, "unit": "%"}, {"measurement": "inhibition at 0.0016 ppm", "setting": "[2]; PDB, Table 14", "value": 47, "unit": "%"}, {"measurement": "inhibition at 0.0031 ppm", "setting": "[2]; PDB, Table 8", "value": 81, "unit": "%"}, {"measurement": "inhibition at 0.0031 ppm", "setting": "[2]; in PDB", "value": 83, "unit": "%"}, {"measurement": "inhibition at 0.0016 ppm", "setting": "Pythium ultimum; 0.0016 ppm, Table 10", "value": 0, "unit": "%"}, {"measurement": "inhibition at 0.0031 ppm", "setting": "Pythium ultimum; 0.0031 ppm, Table 10", "value": 0, "unit": "%"}, {"measurement": "inhibition at 0.0063 ppm", "setting": "Pythium ultimum; 0.0063 ppm, Table 3", "value": 11, "unit": "%"}, {"measurement": "inhibition at 0.0125 ppm", "setting": "Pythium ultimum; 0.0125 ppm, Table 3", "value": 0, "unit": "%"}, {"measurement": "inhibition at 0.025 ppm", "setting": "Pythium ultimum; 0.0250 ppm, Table 3", "value": 0, "unit": "%"}, {"measurement": "inhibition at 0.05 ppm", "setting": "Pythium ultimum; 0.0500 ppm, Table 3", "value": 0, "unit": "%"}, {"measurement": "inhibition at 0.1 ppm", "setting": "Pythium ultimum; 0.1000 ppm, Table 3", "value": 2, "unit": "%"}, {"measurement": "inhibition at 0.2 ppm", "setting": "Pythium ultimum; 0.2000 ppm, Table 3", "value": 0, "unit": "%"}]}]}
